Series [1] relates to hAMSCs. Kind of series: WST-1 Cell Proliferation assay of encapsulated hAMSCs. It counts as cell-based, human. As to conditions: days 1-4 of culture.
The next series has as its system hAMSCs in nude mice. The series is described as follows: In vivo adipogenic differentiation of hydrogel-encapsulated hAMSCs injected subcutaneously. As to conditions: subcutaneous dorsal neck, 30 days post-injection. The method, then: All mouse experiments were conducted in accordance with the Guide for the Care and Use of Laboratory Animals and were approved by each Institution's respective Administrative Panel on Laboratory Animal Care. hAMSCs were encapsulated in PO, EFK8, and EFK8-PO hydrogels at a final concentration of 1×10^6 cells/ml and mixed gently in the hydrogels. PO and EFK8-PO were kept on ice to prevent premature gelation during the seeding process. Two hundred μL of each encapsulation was injected subcutaneously using 1 ml syringes into the dorsal neck area of female nude mice (8 weeks of age). Two hundred μL of PBS was used as a control. The nude mice were then allowed to recover, and then returned to their cages. After 30 days, mice were sacrificed using CO2 euthanasia and dorsal neck skin harvested immediately. […]
Specimens were frozen sectioned using either vertical or horizontal slices 5-10 μm thick, then post-fixed in 100% cold acetone at −20° C., blocked for 1 hr with goat serum and then incubated with the appropriate mouse anti-human nuclei monoclonal primary antibody (Chemicon, Billerica, Mass.) at the desired dilution (1:50 to 1:250) overnight at 4° C. Signal was detected using the Vectastain ABC Elite Mouse/Rabbit/Goat IgG detection kit (Vector Laboratories, Burlingame, Calif.) following the manufacturer's protocol. […]

The nature of series [2]: Rheology, temperature sweep of hydrogels (AR-G2 rheometer). Type of series: physicochemical. As to conditions: for lost modulus G″ / storage modulus G′: 1% w/v in PBS. The method, then: The viscoelastic properties of 3 hydrogels were investigated with a, AR-G2 rheometer (TA Instruments, New Castle, Del.). The parameters of temperature sweep were set as follows: range 4-40° C., change rate 5° C./min, strain 2%; frequency 1 Hz. Three parameters were recorded: 1) storage modulus G′ estimates the elastic component of mechanical strength, 2) lost modulus G″ estimates the viscous component of mechanical strength, and 3) phase difference Delta indicates the elastic or viscous property of a material. Zero degree of Delta implies a purely elastic material, while a purely viscous material has a Delta of 90 degrees. This same method can be used to analyze the viscoelastic properties of any of the scaffolds/hydrogels of the invention.
To determine the mechanical properties of PO, EFK8, and EFK8-PO hydrogels, we performed rheological analyses. The viscoelastic behaviors of EFK8 (1% w/v in PBS), PO (20% w/v in PBS), and EFK8-PO (20% w/v PO plus 1% w/v EFK8, both in PBS) hydrogels are illustrated in FIG. 1. At 25° C., G′ of EFK8 hydrogel was ˜10.5 Pa and G″ was ˜6.2 Pa. […] Phase difference Delta increased from 30 degrees to 70 degrees (FIG. 1A). […] EFK8 hydrogel was very weak and less viscous both at room temperature and 37° C. […] FIG. 1C illustrates the viscoelastic behavior of EFK8-PO.

In series [3] the test system is hAMSCs. The series is described as follows: hAMSC morphology and distribution (aggregation) after encapsulation in hydrogels. Type of series: cell-based, human. As to conditions: hAMSCs encapsulated in hydrogel. How it is done: Cells were encapsulated in the appropriate hydrogel by gently mixing hAMSCs with PO, EFK8, or EFK8-PO at a final concentration of 1×10^6 cells/ml. When seeding hAMSCs in PO or EFK8-PO, hydrogels were kept on ice to prevent premature gelation. Fifty μL of the aliquot of hydrogel/cell mixture was quickly transferred into a 96-well microplate. Encapsulated hAMSCs were then incubated at 37° C. for 5 min to induce gel formation. One hundred μL of DMEM medium was then added into each well. Fresh medium was changed 3 times within the first 30 min in order to neutralize the acidic pH of the hydrogels, and then changed every other day during culture. After various treatments described below and at the appropriate time points, a 1000 μL pipette tip was cut at its distal end to facilitate our ability to gently draw up 50 μL of encapsulated hAMSCs from the top of the well. Cells were then gently placed onto a slide to allow for examination under light field microscopy. This process was repeated 3 times per well, allowing for assessment of a total of 3 different depth layers (top, middle, and bottom) of the encapsulated cell mixture. This method of encapsulation can generally be used for encapsulating most cell-types in the scaffolds described herein. […]

For a further series, the system named is bleeding hand. Kind of series: Hemostatic agent test on a bleeding hand. As to conditions: in vivo. How it is done: In one embodiment, the scaffolds can be used as a hemostatic agent. […] When a bleeding hand was treated with EFK8-PO, bleeding stopped at one minute. When a bleeding hand was treated with PO alone, the hand was still bleeding at 10 minutes.

Series [4] in a line: Cell viability of hydrogel-encapsulated hAMSCs (trypan blue). It counts as cell-based. Particulars: human, hAMSCs encapsulated in EFK8 hydrogel, through 14 days of culture, read-out: hAMSC viability. The method, then:
hAMSCs were encapsulated in PO, EFK8, or EFK8-PO and cultured in a 37° C. humidified 5% CO2 incubator for 3 hrs, 1, 3, 6, 10, or 14 days. Fifty μL of cells was then mixed with an equal volume of 1% trypan blue and observed under light microscopy. Trypsin-EDTA (0.25%) was used to separate cells when cell aggregation occurred. Viability was calculated as the percentage of living cells over total cells.

The subject of series [5] is hAMSCs. Kind of series: In vitro adipogenic differentiation of encapsulated hAMSCs (Oil Red O). Type of series: cell-based, human. The text has this: (§1) hAMSCs were encapsulated in PO, EFK8, and EFK8-PO as above. Adipogenic or osteogenic differentiation was induced by culturing cells in adipogenic or osteogenic differentiation medium (AD-medium or OS-medium, respectively, Cell Applications, San Diego, Calif.) for 7 days or 14 days, respectively, according to our previously published method, which is hereby incorporated by reference, Zhao L et al., “TGF-beta 1 Induces Osteogenic Differentiation of Murine Bone Marrow Stromal Cells,” Tissue Eng Part A 2009, In press. Fresh induction media was added to every other day.
Red oil staining was used to confirm hAMSC adipogenic differentiation. Cells were washed with PBS and fixed with 10% formalin for 20 min. Cells were then washed twice with PBS, once with 60% isopropyl alcohol, stained with Oil Red O solution (Sigma-Aldrich) for 15 min, washed with PBS once more, and then observed by light field microscopy, Hata K et al., “A CCAAT/enhancer binding protein beta isoform, liver-enriched inhibitory protein, regulates commitment of osteoblasts and adipocytes,” Mol Cell Biol, 2005, 25(5):1971-1979, which is hereby incorporated by reference.

Series [6] concerns hAMSCs. Kind of series: Cell surface marker expression of encapsulated hAMSCs (RT-PCR). Type of series: cell-based, human. As to conditions: after 2 weeks of culture, data not shown. An excerpt: hAMSCs were confirmed to meet the minimal criteria for defining multipotent MSCs according to previously described methods [Dominici et al., “Minimal criteria for defining multipotent mesenchymal stromal cells. The International Society for Cellular Therapy position statement,” Cytotherapy 2006; 8:315-7.]. First, hAMSCs were plastic-adherent when maintained in standard culture conditions using tissue culture flasks. […] Third, hAMSCs were able to differentiate to osteoblasts, adipocytes and chondroblasts under standard in vitro differentiating conditions.

Series [7] relates to hAMSCs. Kind of series: In vitro osteogenic differentiation of encapsulated hAMSCs (ALP, alizarin red S). Type of series: cell-based, human. Particulars: osteogenic differentiation medium, 14 days.
Source text: as §1
Alkaline Phosphatase (ALP) staining was used to detect mineralization in hAMSCs during osteogenic differentiation. After culturing encapsulated hAMSCs for 14 days in the various hydrogels, the medium was aspirated and cells were stained with StemTag ALP (Cell Biolabs, San Diego, Calif.) according to the manufacturer's protocol. Briefly, after washing twice with PBS, cells were exposed to fixing solution for 2 min, then washed again with PBS and incubated with StemTAG ALP staining solution for 30 min in the dark. ALP staining solution was aspirated and cells were then washed with PBS and observed under light microscopy. […]

Entries after “also recorded” stand apart in the source; their conditions may differ.

The viability is a read-out of living cells in per cent, often relative to untreated cells. For the substance “Ac-KFEFKFEF-NH2 [EFK8, AcN-KFEFKFEF-CONH2]”, the “hAMSC proliferation (WST-1)” value in the series with hAMSCs [1] is “significantly increased hAMSC proliferation rates; also recorded: promote cell proliferation”. In addition, the “new fat (adipose) tissue / hAMSC engraftment and adipogenic differentiation” value in the series with hAMSCs in nude mice was “did not observe new adipose tissue”. In series [2] (25° C.), the “lost modulus G″” value is on record as approximately 6.2 Pa and the “storage modulus G′” value was approximately 10.5 Pa. For the same substance, in series [2] (37° C.), the “lost modulus G″” value stood at 5 Pa and the “storage modulus G′” value worked out at 2 Pa. Further, in series [2] (end of the increase (37° C.)), the “phase difference Delta” value came out at 70 degrees. In addition, the “phase difference Delta” value in series [2] (start of the increase (25° C.)) worked out at 30 degrees. Moreover, in the series with hAMSCs [3] (3 days of culture), the “Aggregation Day 3” value is recorded as <3-5%. In addition, in the series on hAMSCs [3] (10 days of culture), the “Aggregation Day 10” value is on record as approximately 10%. Also, in the series with bleeding hand, the “effectiveness as a hemostatic agent (in words)” value is recorded as “also effective as a hemostatic agent”. In [4], the viability is more than 80%. In addition, the “Adipogenic Oil-Red-O (% +) Day 4” value in the series on hAMSCs [5] (adipogenic differentiation medium, 4 days) is reported as 42±6%. Besides, the “Adipogenic Oil-Red-O (% +) Day 7” value with hAMSCs [5] (adipogenic differentiation medium, 7 days) is reported as 68±8%. Further, in the series on hAMSCs [5] (adipogenic or osteogenic induction medium), the “differentiation of encapsulated hAMSCs on induction medium (in words)” value was “differentiated into adipocytes or osteoblasts”. Besides, in the series with hAMSCs [6], the “cell surface marker expression pattern” value was “expressed CD73, CD90, and CD105 but were negative for CD14, CD19, CD34, CD45, and HLA class II”. Further, in the series with hAMSCs [7], the “Osteogenic AP (% +) Day 14” value came to 88±9% and the “Osteogenic Alizarin Red (% +) Day 14” value amounted to 54±7%.

Source of the values: US8911723B2, “Hybrid hydrogel scaffold compositions and methods of use” (Escape Therapeutics, Inc., priority 2010, dated 2014).
